Experimental data published in patent publication US20100120311A1, “METHOD FOR PROVIDING TEXTILES WITH DESENSITIZED SILVER COMPONENTS” (priority 2006, published 2010).

Assay: Visual assessment of discoloration on exposure to light
Details: benzotriazole up to 5 g/g of silver ions, hydroxylamine hydrochloride up to 3 g/g of silver ions, without pinacryptol yellow

c1ccc2[nH]nnc2c1 [benzotriazole]
suppression of discoloration of formulation and textile by stabilizer: not capable, in the concentration used, of permanently suppressing either the discoloration of the formulation itself or the discoloration of the textile

Cl.NO [hydroxylamine hydrochloride]
suppression of discoloration of formulation and textile by stabilizer: not capable, in the concentration used, of permanently suppressing either the discoloration of the formulation itself or the discoloration of the textile
